Data set [1] addresses full length MALT1 (Homo sapiens (Human), UniProt Q9UDY8). Nature of the data set: MALT1 Biochemical Assay. The following applies: 15 nM enzyme, 30 μM peptide substrate Ac-Leu-Arg-Ser-Arg-Rh110-dPro, 30 min pre-incubation, 60 min reaction; mean value if tested more than once. The method in brief:
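Full-length human MALT1 was pre-incubated with compound for 30 min, then cleaved a fluorogenic peptide for 60 min in 50 mM Hepes pH 7.5 with 0.8 M sodium citrate and 1 mM DTT. The reaction was quenched with 10 mM iodoacetate and fluorescence was read at 485/520 nm. IC50 came from four-parameter logistic fits of percent inhibition.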

Data set [2] deals with IL-2 in Jurkat (ATCC, clone E6.1) cells stimulated with anti-CD3/28/2. Nature of the data set: Jurkat IL-2 Assay. It is filed as cell-based. The following applies: Homo sapiens; IL-2 inhibition, Jurkat cells, 30 min compound then anti-CD3/28/2 stimulation for 24 hours; mean value if tested more than once; read-out: IC50. Summed up:
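Jurkat E6.1 T cells in RPMI/10% FBS (below passage 25) were preincubated with a compound dose-response for 30 min, then stimulated with soluble anti-CD3/28/2 for 24 h. IL-2 in the supernatant was measured by MSD immunoassay and viability by CellTiter-Glo luminescence. IC50 came from a 4-parameter fit, reported as ranges, with the mean used where tested repeatedly.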

Data set [3] in a line: High Throughput Dialysis (HTD) Human Plasma Protein Binding Assay. It is filed as in vitro ADME. The following applies: pooled human plasma, pH 7.4, equilibrium dialysis, 37° C., read-out: Human PPB (% Unbound). As for the experimental part: Human plasma protein binding of various compounds of formula (I) were evaluated using the equilibrium dialysis method described herein.
The dialysis membrane strips (HTD % a/b, catalog number 1101, HTDialysis LLC, Gales Ferry, CT, USA) were soaked in ultra-pure water at room temperature for approximately 1 hour. Each membrane strip containing 2 membranes was separated and soaked in 20:80 ethanol/water (v/v) for approximately 20 minutes, after which they were ready for use or were stored in the solution at 2-8° C. for up to a month. Prior to the experiment, the membrane was rinsed three times and soaked for 20 minutes in ultra-pure water.
On the day of experiment, the human plasma (BiolVT, catalog number […], sodium heparin or EDTA-K2 anticoagulant, multiple individuals pooled) was thawed by running under cold tap water and centrifuged at 3220 rpm for 5 minutes to remove any clots. The pH value of the resulting plasma was confirmed to be 7.0-8.0.
The test compounds and warfarin control (Stru Chem, catalog number SC-16139) were dissolved in dimethyl sulfoxide (DMSO) to obtain 10 mM stock solutions. DMSO working solutions were prepared at 400 μM. To prepare the loading matrix, the compound working solutions (5 μL) were added in a 1:200 ratio to blank human plasma (995 μL) and mixed thoroughly.
The time zero (T0) samples to be used for recovery determination were prepared as follows: 50 μL aliquots of loading matrix were transferred in triplicate to the sample collection plate. The samples were immediately matched with opposite blank buffer (basic solution (14.2 g/L Na2HPO4 and 8.77 g/L NaCl in deionized water) titrated with acidic solution (15.6 g/L NaH2PO4·2H2O and 8.77 g/L NaCl in deionized water) to pH 7.4±0.1) to obtain a final volume of 100 μL of 1:1 matrix/dialysis buffer (v/v) in each well. 500 μL stop solution (200 ng/mL tolbutamide and 200 ng/mL labetalol in acetonitrile) were added to these TO samples. They were then stored at 2-8° C. for further processing along with other post-dialysis samples.
To load the dialysis device (96-well equilibrium dialysis plate, model 96b, catalog number 1006. HTDialysis LLC, Gales Ferry, CT, USA), an aliquot of 150 μL of the loading matrix was transferred to the donor side of each dialysis well in triplicate, and 150 μL of the dialysis buffer was loaded to the receiver side of the well. The dialysis plate was placed in a humidified incubator at 37° C. with 5% CO2 on a shaking platform that rotated slowly (about 100 rpm) for 4 hours.
At the end of the dialysis, aliquots of 50 μL of the samples were taken from both the buffer side and the matrix side of the dialysis device. These samples were transferred into new 96-well plates (polypropylene, 2.2 mL/well, catalog number DWP-22-96-SQ-U-C-L. Apricot). Each sample was mixed with an equal volume of opposite blank matrix (buffer or matrix) to reach a final volume of 100 μL of 1:1 matrix/dialysis buffer (v/v) in each well. All samples were further processed by adding 500 μL of stop solution containing internal standards. The mixture was vortexed and centrifuged at 4000 rpm for about 20 minutes. An aliquot of 100 μL of supernatant of all the samples was then removed for LC-MS/MS analysis. Test compound concentrations in matrix and buffer samples were expressed as peak area ratios (PAR) of analyte/internal standard (no standard curve).
The single blank samples were prepared by transferring 50 μL of blank matrix to a 96 well plate (polypropylene. 2.2 mL/well, catalog number DWP-22-96-SQ-U-C-L, Apricot) and adding 50 μL of blank PBS buffer to each well. The blank plasma must match the species of plasma used in the plasma side of the well. Then the matrix-matched samples were further processed by adding 500 μL of stop solution containing internal standards, following the same sample processing method as the dialysis samples. […]

Data set [4] can be described thus: Thermodynamic Solubility (Ts) Assay in Fasted State Simulated Intestinal Fluid (FaSSIF). It is filed as physicochemical. The following applies: thermodynamic from solid, FaSSIF pH 6.5, shake flask, 25° C., HPLC-UV. As for the experimental part:
The solubilities of various compounds of formula (I) were determined using a thermodynamic solubility assay. The thermodynamic solubility assay employed the shake flask method followed by HPLC-UV analysis. The following stepwise procedure was followed:
Samples of no less than 2.0 mg were weighed into the lower chambers of Whatman mini-uniprep vials (catalog number UN203NPUORG) and 450 μL of FaSSIF media (0.056% (w/v) lecithin, 0.161% (w/v) sodium taurocholate, 0.39% (w/v) monobasic potassium phosphate, 0.77% (w/v) potassium chloride, deionized H2O, pH 6.5) was added into each vial.
After the buffer was added, the filter pistons of the mini-uniprep vials were placed to the position of the liquid level to ensure the full contact of buffer and compound with the filter during the incubation.
The samples were then vortexed for 2 minutes, after which they were incubated at 25° C. with shaking (880 rpm) for 24 hours.
The samples were then centrifuged at 4000 rpm (20° C.) for 10 min.
The miniunipreps were then compressed to prepare filtrates, and the test concentration of the compound in the filtrate was determined using HPLC-UV (Waters XBridge C18, 4.6*100 mm column; mobile phase A: 0.1% TFA in H2O; mobile phase B: 0.1% TFA in acetonitrile). At least 5 UV standard solutions (e.g. amiodarone hydrochloride, carbamazepine, dexamethasone) were injected into the HPLC from low to high concentration subsequently followed by testing of the thermodynamic solubility supernatants in duplicate. The solubilities of the tested compounds are given in μg/mL.

≈ marks a conversion by molar mass, not a printed value.

full length MALT1, sequence (Q9UDY8 whole entry): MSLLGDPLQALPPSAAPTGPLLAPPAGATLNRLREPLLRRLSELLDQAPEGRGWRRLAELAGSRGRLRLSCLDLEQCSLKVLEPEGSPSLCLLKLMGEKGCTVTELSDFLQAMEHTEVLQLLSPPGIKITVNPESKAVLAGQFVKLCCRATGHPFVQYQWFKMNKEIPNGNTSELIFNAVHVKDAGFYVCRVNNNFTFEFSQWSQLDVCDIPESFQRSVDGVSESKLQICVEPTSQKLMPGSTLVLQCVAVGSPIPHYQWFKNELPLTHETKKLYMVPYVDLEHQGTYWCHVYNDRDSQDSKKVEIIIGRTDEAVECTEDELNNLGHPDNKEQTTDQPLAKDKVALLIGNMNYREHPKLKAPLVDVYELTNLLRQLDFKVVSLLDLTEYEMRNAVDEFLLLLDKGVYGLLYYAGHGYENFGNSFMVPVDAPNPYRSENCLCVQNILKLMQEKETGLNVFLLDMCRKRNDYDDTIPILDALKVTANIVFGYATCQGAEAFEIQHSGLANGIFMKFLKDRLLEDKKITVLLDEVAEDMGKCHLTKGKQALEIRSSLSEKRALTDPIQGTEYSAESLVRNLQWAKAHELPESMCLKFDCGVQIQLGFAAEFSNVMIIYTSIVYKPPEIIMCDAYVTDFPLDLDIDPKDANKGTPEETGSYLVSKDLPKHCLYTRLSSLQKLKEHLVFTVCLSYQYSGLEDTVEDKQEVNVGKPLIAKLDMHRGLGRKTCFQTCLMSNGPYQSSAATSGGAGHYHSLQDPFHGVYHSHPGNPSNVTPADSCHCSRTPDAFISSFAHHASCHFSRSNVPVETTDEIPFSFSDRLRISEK

Consider `CO[C@@H](C)c1c(Nc2ccc([C@H](N(C)C(=O)C3CCN(S(C)(=O)=O)C3)C(F)(F)F)cc2)cnc2nc(Cl)nn12` (stereo partly drawn) [Compound 3.10, N-[(1S)-1-[4-({2-chloro-7-[(1S)-1-methoxyethyl]-[1,2,4]triazolo[1,5-a]pyrimidin-6-yl}amino)phenyl]-2,2,2-trifluoroethyl]-1-methanesulfonyl-N-methylpyrrolidine-3-carboxamide], for which the IC50 in data set [1] and in data set [2] was 100 to 1000 nM each time. For the same compound, in data set [3], the fraction unbound at 4 h, 2 µM is 0.08 to 0.2.

With `CO[C@H](C)c1c(Nc2ccc([C@H](N(C)C(=O)C3CCN(C(C)=O)CC3)C(F)(F)F)cc2)cnc2nc(Cl)nn12` [Compound 11.1, 1-acetyl-N—((S)-1-(4-((2-chloro-7-((R)-1-methoxyethyl)-[1,2,4]triazolo[1,5-a]pyrimidin-6-yl)amino)phenyl)-2,2,2-trifluoroethyl)-N-methylpiperidine-4-carboxamide], the results for the IC50 in data set [1] and in data set [2] were less than 100 nM and 100 to 1000 nM, respectively. In data set [4], this compound returned a solubility at 24 h of 250 to 1750 µg/mL (≈ 440 to 3080 µM). Also, the fraction unbound at 4 h, 2 µM in data set [3] lay within 0.08 to 0.2.

Turning to `CO[C@@H](C)c1c(Nc2ccc([C@H](N(C)C(=O)C3CCN(C(C)=O)CC3)C(F)(F)F)cc2)cnc2nc(Cl)nn12` [Compound 3.1, 1-acetyl-N—((S)-1-(4-((2-chloro-7-((S)-1-methoxyethyl)-[1,2,4]triazolo[1,5-a]pyrimidin-6-yl)amino)phenyl)-2,2,2-trifluoroethyl)-N-methylpiperidine-4-carboxamide], the values for the IC50 in data set [1] and in data set [2] were less than 100 nM and 100 to 1000 nM, respectively. Also, the solubility at 24 h in data set [4] was 250 to 1750 µg/mL (≈ 440 to 3080 µM). Further, the fraction unbound at 4 h, 2 µM in data set [3] was more than 0.2.

With `CO[C@@H](C)c1c(Nc2ccc([C@H](N(C)C(=O)[C@H]3CC[C@H](C(=O)O)CC3)C(F)(F)F)cc2)cnc2nc(Cl)nn12` [Compound 7.1, (1S,4r)-4-(((S)-1-(4-((2-chloro-7-((S)-1-methoxyethyl)-[1,2,4]triazolo[1,5-a]pyrimidin-6-yl)amino)phenyl)-2,2,2-trifluoroethyl)(methyl)carbamoyl)cyclohexane-1-carboxylic acid], the figures for the IC50 in data set [1] and in data set [2] were 100 to 1000 nM and more than 1000 nM, respectively. The compound also had a solubility at 24 h in data set [4] of more than 1750 µg/mL. The fraction unbound at 4 h, 2 µM in data set [3] was 0.08 to 0.2.

Consider `CC(C)c1c(Nc2ccc([C@H](N(C)C(=O)C3CCS(=O)(=O)CC3)C(F)(F)F)cc2)cnc2nc(Cl)nn12` [Compound 1.18, N-[(1S)-1-(4-{[2-chloro-7-(propan-2-yl)-[1,2,4]triazolo[1,5-a]pyrimidin-6-yl]amino}phenyl)-2,2,2-trifluoroethyl]-N-methyl-1,1-dioxo-1λ^6-thiane-4-carboxamide], for which the IC50 in data set [1] and in data set [2] was less than 100 nM each time. In data set [4], this compound gave a solubility at 24 h of less than 250 µg/mL. Besides, the fraction unbound at 4 h, 2 µM in data set [3] is less than 0.08.

With `CC(=O)N1CCC(C(=O)N(C)[C@@H](c2ccc(Nc3cnc4nc(Cl)nn4c3C(C)C)cc2)C(F)(F)F)CC1` [Compound 1.19, 1-acetyl-N-[(1S)-1-(4-{[2-chloro-7-(propan-2-yl)-[1,2,4]triazolo[1,5-a]pyrimidin-6-yl]amino}phenyl)-2,2,2-trifluoroethyl]-N-methylpiperidine-4-carboxamide], the IC50 in data set [1] and in data set [2] was less than 100 nM in each case. The compound further yielded a solubility at 24 h in data set [4] of less than 250 µg/mL. In addition, in data set [3], the fraction unbound at 4 h, 2 µM was less than 0.08.

Turning to `CO[C@@H](C)c1c(Nc2ccc([C@H](N(C)C(=O)C3CCN(C(=O)C4CC4)CC3)C(F)(F)F)cc2)cnc2nc(Cl)nn12` [Compound 4.1, N—((S)-1-(4-((2-chloro-7-((S)-1-methoxyethyl)-[1,2,4]triazolo[1,5-a]pyrimidin-6-yl)amino)phenyl)-2,2,2-trifluoroethyl)-1-(cyclopropanecarbonyl)-N-methylpiperidine-4-carboxamide], the IC50 in data set [1] was less than 100 nM; in data set [2] it was 100 to 1000 nM. Moreover, the solubility at 24 h in data set [4] was less than 250 µg/mL. Further, in data set [3], the fraction unbound at 4 h, 2 µM lay in the range of 0.08 to 0.2.

Turning to `CO[C@@H](C)c1c(Nc2ccc([C@H](N(C)C(=O)C3CCN(C)CC3)C(F)(F)F)cc2)cnc2nc(Cl)nn12` [Compound 5.1, N—((S)-1-(4-((2-chloro-7-((S)-1-methoxyethyl)-[1,2,4]triazolo[1,5-a]pyrimidin-6-yl)amino)phenyl)-2,2,2-trifluoroethyl)-N,1-dimethylpiperidine-4-carboxamide], the IC50 in data set [1] and in data set [2] was 100 to 1000 nM each time. In addition, the solubility at 24 h in data set [4] was more than 1750 µg/mL. The fraction unbound at 4 h, 2 µM in data set [3] is more than 0.2.

As for `CNC(=O)[C@H]1CC[C@H](C(=O)N(C)[C@@H](c2ccc(Nc3cnc4nc(Cl)nn4c3[C@H](C)OC)cc2)C(F)(F)F)CC1` [Compound 8.2, (1r,4S)—N1-((S)-1-(4-((2-chloro-7-((S)-1-methoxyethyl)-[1,2,4]triazolo[1,5-a]pyrimidin-6-yl)amino)phenyl)-2,2,2-trifluoroethyl)-N1,N4-dimethylcyclohexane-1,4-dicarboxamide], the IC50 in data set [1] and in data set [2] was 100 to 1000 nM each time. Further, in data set [4], the solubility at 24 h was 250 to 1750 µg/mL (≈ 430 to 3010 µM). In addition, the fraction unbound at 4 h, 2 µM in data set [3] lay within 0.08 to 0.2.

As for `CO[C@@H](C)c1c(Nc2ccc([C@H](N(C)C(=O)[C@H]3CC[C@H](C(N)=O)CC3)C(F)(F)F)cc2)cnc2nc(Cl)nn12` [Compound 8.1, (1r,4S)—N1-((S)-1-(4-((2-chloro-7-((S)-1-methoxyethyl)-[1,2,4]triazolo[1,5-a]pyrimidin-6-yl)amino)phenyl)-2,2,2-trifluoroethyl)-N1-methylcyclohexane-1,4-dicarboxamide], the IC50 was less than 100 nM in data set [1] and 100 to 1000 nM in data set [2]. Also, the fraction unbound at 4 h, 2 µM in data set [3] lay within 0.08 to 0.2.
